This is an account of results in PMC3971658 (The Journal of General Physiology, 2014).

The test system of one experiment is Rabbit Cav2.1. It counts as cell-based. To be noted: 50 µM.
Experiment [1] concerns human Cav2.1 (α1A-2) channel alone. The class given is cell-based. To be noted: 50 µM.
The next experiment has as its system Human Cav2.3d. The class given is cell-based. The conditions noted are these: 50 µM.
Experiment [2] deals with R-type current, rat DRG neurons. The class given is cell-based.
In experiment [3] the test system is human Cav2.3c (α1E-c) channel alone. It counts as cell-based. The conditions noted are these: 50 µM.
The test system of a further experiment is Human Cav2.1. It counts as cell-based. To be noted: 50 µM.
Experiment [4] relates to human Cav2.3c channel and GABABR.
Experiment [5] deals with c-Src / human Cav2.1 channel and GABABR. It counts as cell-based.
Experiment [6] deals with R-type current, thalamocortical neurons. The conditions noted are these: cited from earlier work.
For the next experiment, the system named is Human Cav2.3c. It counts as cell-based. The conditions noted are these: 50 µM.

For `NCC(CC(=O)O)c1ccc(Cl)cc1` (stereo not shown) [Baclofen, baclofen], the IBa inhibition result is listed as “^#50.0 ± 5.0 (8) %” in the experiment with Rabbit Cav2.1; 0 (5) % in experiment [1]; 33.1 ± 1.8 (8) % in the experiment with Human Cav2.3d; 0 (6) % in experiment [3]; 44.4 ± 1.9 (9) % in the experiment with Human Cav2.1; 44.0 ± 3.0 (10) % with Human Cav2.3c. Also, the R-type current inhibition entry in experiment [2] is given as “R-type current inhibition by baclofen”. In experiment [4], the “V0.5,act” value was −3.44 ± 0.67 mV. Moreover, the “baclofen inhibition of IBa with wild-type c-Src overexpression or pp60c-Src peptide” value in experiment [5] was “did not affect baclofen inhibition of IBa”. In experiment [6], the R-type current modulation entry is given as “R-type current modulation by baclofen has been demonstrated”.
